Publication PMC8300687, “A Fine-Tuned Lipophilicity/Hydrophilicity Ratio Governs Antibacterial Potency and Selectivity of Bifurcated Halogen Bond-Forming NBTIs” (Antibiotics, 2021)
≈ marks a conversion by molar mass, not a printed value. Like-named read-outs stand apart in the source and are kept apart here.

Assays:
[1] = Equilibrium solubility at pH 6.8; settings: phosphate buffered saline, 37 °C, pH 6.8, aqueous buffer, thermodynamic from solid
How it was run: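 Concentrations in solution were read by compound-specific isocratic HPLC calibrated with 30–90 mg/L external standards, after 5 min homogenization and 24 h shaking at 1200 RPM, 37 °C.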

E. coli DNA gyrase = target: T1, E. coli DNA gyrase (Escherichia coli, UniProt P0AES4); test: Gyrase Supercoiling High Throughput Plate assay, E. coli; format: biochemical; settings: for LE DNA Gyrase E. coli: LE = (1.37/HA) × pIC50
T1 construct: purchased Inspiralis (Norwich, UK)
Protocol: (§1) A Gyrase Supercoiling High Throughput Plate assay kit, purchased from Inspiralis (Norwich. UK) was used to determine IC50 values of compounds on S. aureus and E. coli. […] Biotinylated oligonucleotide in wash buffer was immobilized onto the wells, and the excess oligonucleotide was washed off with wash buffer and ultrapure water. […] The reactions were stopped by adding the TF buffer (50 mM NaOAc (pH 4.7), 50 mM NaCl, and 50 mM MgCl2) to allow the triplex formation (biotin-oligonucleotide-plasmid) for additional 30 min. Afterward, the unbound plasmid was washed off using TF buffer, and the solution of Promega Diamond dye in T10 buffer (10 mM Tris-HCl (pH 8.0), 1 mM EDTA) was added. […] IC50 value represents the mean of two to four independent measurements.

S. pneumoniae (QA-10/02) = test: MIC broth microdilution, S. pneumoniae; format: cell-based; settings: Streptococcus pneumoniae
Protocol: (§2) Antimicrobial testing was carried out by the broth microdilution method in 96-well plate format following the Clinical and Laboratory Standards Institute (CLSI) guidelines and European Committee on Antimicrobial Susceptibility Testing (EUCAST) recommendations. Bacterial suspension of specific bacterial strain equivalent to 0.5 McFarland turbidity standard was diluted with cation-adjusted Mueller Hinton broth with TES (Thermo Fisher Diagnostic, Landsmeer, The Netherlands), to obtain a final inoculum of 10^5 CFU/mL. Compounds dissolved in DMSO and inoculum were mixed together and incubated for 18–20 h at 35 °C. Suspensions of Mycobacterium sp. were prepared into a tube of Middelbrook 7H9 broth supplemented with 5% OADC (Thermo Scientific, Trek Diagnostic Systems, West Sussex, UK) and incubated for at least 10 days. After incubation the minimal inhibitory concentration (MIC) values were determined by visual inspection as the lowest dilution of compounds showing no turbidity. Tetracycline was used as a positive control on every assay plate.

E. coli (QA-11.7) = test: MIC broth microdilution, E. coli QA-11.7; format: cell-based; settings: Escherichia coli, 20 h; multi-resistant isolate (ampicillin, azithromycin, cefotaxime, ertapenem, imipenem and others); read-out: MIC E. coli (QA-11.7)
Protocol: as §2

E. coli D22 = test: MIC broth microdilution, E. coli D22; format: cell-based; settings: Escherichia coli, D22; mutation in the lpxC gene that increases membrane permeability; read-out: MIC E. coli D22
Protocol: as §2

in vitro = settings: PAMPA
How it was run: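 Compounds measured by HPLC (isocratic, compound-specific methods) after 4-h incubation at 37 °C across a three-layer artificial membrane into pH 7.4 PBS acceptor. Permeability derived from donor and acceptor peak areas, using diluted starting donor solution as external standard.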

E. coli N43 (CGSC# 5583) = test: MIC broth microdilution, E. coli N43; format: cell-based; settings: Escherichia coli
How it was run: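 Compounds in DMSO were combined with bacteria diluted from a 0.5 McFarland standard to 10^5 CFU/mL final in cation-adjusted Mueller Hinton broth containing TES, then incubated at 35 °C for 18–20 h. For Mycobacterium sp., Middelbrook 7H9 supplemented with 5% OADC and at least 10 days' incubation were used.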

E. coli Topo IV = target: T2, E. coli Topo IV (Escherichia coli, UniProt P0AFI2); test: Topo IV Relaxation High Throughput Plate assay, E. coli; format: biochemical; settings: for LE Topo IV E. coli: LE = (1.37/HA) × pIC50
T2 construct: purchased Inspiralis (Norwich, UK)
Protocol: A Topo IV Relaxation High Throughput Plate assay kit, purchased from Inspiralis (Norwich. UK) was used to determine IC50 values of compounds on S. aureus and E. coli. […] Biotinylated oligonucleotide in wash buffer was immobilized onto the wells, and the excess oligonucleotide was washed off with wash buffer and ultrapure water. 1.5 U of S. aureus or E. coli […] enzyme was incubated together with 0.75 μg of supercoiled pNO1 plasmid as a substrate in the presence of 3 μL inhibitor solution in 10% DMSO and 0.008% Tween 20 at 37 °C for 30 min in a final reaction volume of 30 μL in dilution buffer (50 mM Tris-HCl (pH 7.5), 1 mM DTT, 1 mM EDTA, 40% (w/v) glycerol for S. aureus and 40 mM HEPES, KOH (pH 7.6), 100 mM potassium glutamate, 1 mM DTT, 1 mM EDTA, and 40% (v/v) glycerol for E. coli). The reactions were stopped by adding the TF buffer (50 mM NaOAc (pH 4.7), 50 mM NaCl, and 50 mM MgCl2) to allow the triplex formation (biotin-oligonucleotide-plasmid) for additional 30 min. Afterward, the unbound plasmid was washed off using TF buffer, and the solution of Promega Diamond dye in T10 buffer (10 mM Tris-HCl (pH 8.0), 1 mM EDTA) was added. […] IC50 value represents the mean of two to four independent measurements.

S. aureus DNA gyrase = target: T3, S. aureus DNA gyrase (Staphylococcus aureus, UniProt P20831); test: biochemical; format: biochemical; settings: for LE DNA Gyrase S. aureus: LE = (1.37/HA) × pIC50; for IC50: fluorescence plate supercoiling assay, mean of two to four measurements
T3 construct: purchased Inspiralis (Norwich, UK)
Protocol: as §1

MRSA (QA-11.2) = test: MIC broth microdilution, MRSA QA-11.2; format: cell-based, methicillin-resistant S. aureus; settings: Staphylococcus aureus, 20 h, resistant to cefoxitin, chloramphenicol, clindamycin, linezolid, tetracycline, thiamulin, trimethoprim, read-out: MIC MRSA (QA-11.2)
Protocol: as §2

S. aureus (ATCC 29213) = test: MIC broth microdilution, S. aureus ATCC 29213; format: cell-based; settings: Staphylococcus aureus, ATCC29213
Protocol: as §2

MRSA (QA-11.4) = test: MIC broth microdilution, MRSA QA-11.4; format: cell-based, methicillin-resistant S. aureus; settings: Staphylococcus aureus, 20 h, resistant to cefoxitin, read-out: MIC MRSA (QA-11.4)
Protocol: as §2

[2] = read-out: E. coli N43 MIC in molar
[3] = read-out: MIC E. coli N43 (CGSC# 5583)
[4] = S. aureus ATCC 29213, read-out: S. aureus MIC (converted)
[5] = read-out: MIC S. aureus (ATCC 29213)

T1 sequence (P0AES4 whole entry): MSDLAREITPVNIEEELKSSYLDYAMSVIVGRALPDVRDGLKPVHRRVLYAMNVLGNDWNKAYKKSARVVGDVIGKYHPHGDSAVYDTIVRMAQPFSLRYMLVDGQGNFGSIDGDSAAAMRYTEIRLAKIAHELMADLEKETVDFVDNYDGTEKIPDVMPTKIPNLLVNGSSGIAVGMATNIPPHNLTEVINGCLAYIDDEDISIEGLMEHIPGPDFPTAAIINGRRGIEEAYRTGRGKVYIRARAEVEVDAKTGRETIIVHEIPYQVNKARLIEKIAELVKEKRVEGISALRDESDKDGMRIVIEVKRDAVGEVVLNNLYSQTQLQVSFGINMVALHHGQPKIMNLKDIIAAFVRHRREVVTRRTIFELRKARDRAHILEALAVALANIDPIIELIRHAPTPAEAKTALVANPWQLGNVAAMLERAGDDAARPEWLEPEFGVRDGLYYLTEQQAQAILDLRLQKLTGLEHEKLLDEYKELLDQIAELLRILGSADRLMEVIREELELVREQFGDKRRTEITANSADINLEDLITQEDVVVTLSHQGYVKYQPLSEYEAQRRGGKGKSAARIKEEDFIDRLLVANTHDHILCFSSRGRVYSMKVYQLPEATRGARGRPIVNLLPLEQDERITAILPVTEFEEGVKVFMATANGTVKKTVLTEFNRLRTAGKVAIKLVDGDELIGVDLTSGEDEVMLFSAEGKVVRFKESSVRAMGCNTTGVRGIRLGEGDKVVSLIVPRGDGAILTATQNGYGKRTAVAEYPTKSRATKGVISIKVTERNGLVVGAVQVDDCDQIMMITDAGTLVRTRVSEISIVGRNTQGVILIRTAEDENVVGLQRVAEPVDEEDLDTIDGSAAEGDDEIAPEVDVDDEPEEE
T2 sequence (P0AFI2 whole entry): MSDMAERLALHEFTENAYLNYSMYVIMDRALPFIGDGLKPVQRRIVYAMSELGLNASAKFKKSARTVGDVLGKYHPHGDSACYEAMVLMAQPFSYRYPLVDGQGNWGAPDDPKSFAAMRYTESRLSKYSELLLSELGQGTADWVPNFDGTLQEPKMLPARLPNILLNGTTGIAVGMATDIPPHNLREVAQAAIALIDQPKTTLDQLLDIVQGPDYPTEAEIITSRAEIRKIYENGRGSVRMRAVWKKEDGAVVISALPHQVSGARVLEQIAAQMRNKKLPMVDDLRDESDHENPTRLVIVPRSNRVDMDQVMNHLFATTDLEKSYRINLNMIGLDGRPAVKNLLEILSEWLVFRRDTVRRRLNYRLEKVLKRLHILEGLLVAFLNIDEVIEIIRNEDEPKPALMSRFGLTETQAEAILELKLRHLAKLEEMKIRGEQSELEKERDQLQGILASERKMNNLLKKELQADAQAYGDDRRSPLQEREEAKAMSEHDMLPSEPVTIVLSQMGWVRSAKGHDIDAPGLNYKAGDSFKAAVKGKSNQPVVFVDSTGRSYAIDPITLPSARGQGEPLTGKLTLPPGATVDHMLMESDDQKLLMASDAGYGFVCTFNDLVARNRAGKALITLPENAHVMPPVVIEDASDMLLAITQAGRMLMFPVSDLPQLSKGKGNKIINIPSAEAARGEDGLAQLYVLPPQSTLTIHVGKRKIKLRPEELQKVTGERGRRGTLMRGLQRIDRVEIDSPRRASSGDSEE
T2 sequence (P20083 whole entry, further chain): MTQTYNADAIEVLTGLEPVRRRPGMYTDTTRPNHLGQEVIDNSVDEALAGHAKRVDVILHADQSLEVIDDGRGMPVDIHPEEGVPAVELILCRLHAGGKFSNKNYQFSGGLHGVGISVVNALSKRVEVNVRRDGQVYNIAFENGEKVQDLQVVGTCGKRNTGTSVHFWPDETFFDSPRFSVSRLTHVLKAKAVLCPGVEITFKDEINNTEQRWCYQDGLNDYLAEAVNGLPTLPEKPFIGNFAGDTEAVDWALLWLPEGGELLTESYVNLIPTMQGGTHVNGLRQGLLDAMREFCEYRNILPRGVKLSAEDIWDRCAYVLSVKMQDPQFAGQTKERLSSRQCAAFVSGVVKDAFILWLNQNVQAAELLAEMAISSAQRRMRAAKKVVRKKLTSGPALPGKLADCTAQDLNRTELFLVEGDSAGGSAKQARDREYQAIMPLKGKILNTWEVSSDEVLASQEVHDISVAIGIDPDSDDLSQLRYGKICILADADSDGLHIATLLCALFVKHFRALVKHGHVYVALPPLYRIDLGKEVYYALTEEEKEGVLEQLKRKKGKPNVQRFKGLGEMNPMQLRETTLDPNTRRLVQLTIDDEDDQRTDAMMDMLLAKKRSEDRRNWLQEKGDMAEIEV
T3 sequence (P20831 whole entry): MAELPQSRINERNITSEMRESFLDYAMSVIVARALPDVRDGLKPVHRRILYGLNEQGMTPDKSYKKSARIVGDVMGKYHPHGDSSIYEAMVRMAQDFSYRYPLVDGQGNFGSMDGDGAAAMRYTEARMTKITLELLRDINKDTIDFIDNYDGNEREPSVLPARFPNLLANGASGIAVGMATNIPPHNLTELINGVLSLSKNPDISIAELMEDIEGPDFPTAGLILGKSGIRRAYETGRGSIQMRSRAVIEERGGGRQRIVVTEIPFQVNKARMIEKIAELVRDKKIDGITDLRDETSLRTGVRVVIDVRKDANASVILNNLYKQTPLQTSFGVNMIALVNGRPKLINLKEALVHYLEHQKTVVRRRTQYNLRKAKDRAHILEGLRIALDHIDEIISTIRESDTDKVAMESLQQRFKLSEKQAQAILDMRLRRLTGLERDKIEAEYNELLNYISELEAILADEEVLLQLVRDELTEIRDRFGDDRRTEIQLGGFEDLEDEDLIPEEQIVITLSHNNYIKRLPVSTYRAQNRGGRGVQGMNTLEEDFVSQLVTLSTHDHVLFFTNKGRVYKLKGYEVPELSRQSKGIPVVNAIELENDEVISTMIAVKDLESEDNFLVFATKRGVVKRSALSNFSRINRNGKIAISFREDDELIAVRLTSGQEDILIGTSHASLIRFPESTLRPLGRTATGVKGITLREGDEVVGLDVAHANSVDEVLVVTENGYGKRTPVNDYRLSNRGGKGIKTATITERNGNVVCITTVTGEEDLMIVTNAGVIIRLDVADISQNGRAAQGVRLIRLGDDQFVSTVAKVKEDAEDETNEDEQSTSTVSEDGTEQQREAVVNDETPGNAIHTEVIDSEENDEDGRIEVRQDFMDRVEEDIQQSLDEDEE
T3 sequence (P0A0K8 whole entry partner): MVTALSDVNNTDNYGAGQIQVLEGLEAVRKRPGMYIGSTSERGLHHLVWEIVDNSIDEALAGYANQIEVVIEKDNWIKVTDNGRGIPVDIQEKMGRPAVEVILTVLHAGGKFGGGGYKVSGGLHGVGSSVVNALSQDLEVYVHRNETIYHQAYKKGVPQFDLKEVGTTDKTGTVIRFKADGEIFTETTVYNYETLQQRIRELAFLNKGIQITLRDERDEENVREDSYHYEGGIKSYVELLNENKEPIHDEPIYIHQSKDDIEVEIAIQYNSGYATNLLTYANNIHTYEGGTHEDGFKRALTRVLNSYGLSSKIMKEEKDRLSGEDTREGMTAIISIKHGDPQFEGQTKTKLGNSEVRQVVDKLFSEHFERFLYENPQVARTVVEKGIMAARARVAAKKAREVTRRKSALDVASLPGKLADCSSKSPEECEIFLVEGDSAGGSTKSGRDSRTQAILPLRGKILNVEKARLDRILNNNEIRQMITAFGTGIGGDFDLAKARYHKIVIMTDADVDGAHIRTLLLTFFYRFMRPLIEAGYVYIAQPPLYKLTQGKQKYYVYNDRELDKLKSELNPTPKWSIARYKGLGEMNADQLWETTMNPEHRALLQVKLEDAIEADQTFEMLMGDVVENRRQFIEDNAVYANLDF

Row | SMILES | solubility thermodynamic at 24 h [1] | IC50 (E. coli DNA gyrase) | LE DNA Gyrase E. coli (E. coli DNA gyrase) | MIC (S. pneumoniae (QA-10/02)) | MIC (E. coli (QA-11.7)) | MIC (E. coli D22) | Papp at 4 h (in vitro) | Papp at 4 h (in vitro; pH 7.4) | MIC (E. coli N43 (CGSC# 5583); [2]) | MIC (E. coli N43 (CGSC# 5583); [3]) | IC50 (E. coli Topo IV) | LE Topo IV E. coli (E. coli Topo IV) | LE DNA Gyrase S. aureus (S. aureus DNA gyrase) | IC50 (S. aureus DNA gyrase) | MIC (MRSA (QA-11.2)) | MIC (S. aureus (ATCC 29213); [4]) | MIC (S. aureus (ATCC 29213); [5]) | MIC (MRSA (QA-11.4))
1 | COc1ccc2nccc(CCN3CCC(NCc4ccc(OC(F)F)c(OC)c4)CC3)c2n1 [Compound 19, N-(4-(Difluoromethoxy)-3-methoxybenzyl)-1-(2-(6-methoxy-1,5-naphthyridin-4-yl)ethyl)piperidin-4-amine] | 79 µg/mL (≈ 167 µM) | 3.9 ± 0.06 µM | 0.22 | 2 µg/mL (≈ 4.23 µM) | 2 µg/mL (≈ 4.23 µM) | 16 µg/mL (≈ 33.9 µM) | > 2.7 ×10⁻⁶ cm/s | 9 ×10⁻⁶ cm/s | 2.12 µM | 1 µg/mL | 0.1 ± 0.01 µM | 0.28 | 0.26 | 0.35 ± 0.03 µM | 2 µg/mL (≈ 4.23 µM) | 2.12 µM | 1 µg/mL | 2 µg/mL (≈ 4.23 µM)
2 | COc1ccc2nccc(CCN3CCC(NCc4ccc(OC(F)F)c(O)c4)CC3)c2n1 [Compound 20, 2-(Difluoromethoxy)-5-((1-(2-(6-methoxy-1,5-naphthyridin-4-yl)ethyl)piperidin-4-ylamino)methyl)phenol] | 103 µg/mL (≈ 225 µM) | 4.41 ± 0.16 µM | 0.22 | 1 µg/mL (≈ 2.18 µM) | 2 µg/mL (≈ 4.36 µM) | 2 µg/mL (≈ 4.36 µM) | > 2.7 ×10⁻⁶ cm/s | 3 ×10⁻⁶ cm/s | 1.09 µM | 0.5 µg/mL | 0.06 µM | 0.30 | 0.27 | 0.33 ± 0.02 µM | 1 µg/mL (≈ 2.18 µM) | 1.09 µM | 0.5 µg/mL | 2 µg/mL (≈ 4.36 µM)
3 | COc1ccc2nccc(CCN3CCC(NCc4ccc(C(F)(F)F)nc4)CC3)c2n1 [Compound 21, 1-(2-(6-Methoxy-1,5-naphthyridin-4-yl)ethyl)-N-((6-(trifluoromethyl)pyridin-3-yl)methyl)piperidin-4-amine] | 209 µg/mL (≈ 469 µM) | 6.91 ± 1.62 µM | 0.22 | 1 µg/mL (≈ 2.24 µM) | 2 µg/mL (≈ 4.49 µM) | 4 µg/mL (≈ 8.98 µM) | > 2.7 ×10⁻⁶ cm/s | 8.3 ×10⁻⁶ cm/s | 2.25 µM | 1 µg/mL | > 100 µM |  | 0.29 | 0.16 ± 0.02 µM | 0.5 µg/mL (≈ 1.12 µM) | 0.56 µM | 0.25 µg/mL | 1 µg/mL (≈ 2.24 µM)
4 | COc1ccc(CNC2CCN(CCc3ccnc4ccc(OC)nc34)CC2)cn1 [Compound 22, 1-(2-(6-Methoxy-1,5-naphthyridin-4-yl)ethyl)-N-((6-methoxypyridin-3-yl)methyl)piperidin-4-amine] | 1460 µg/mL (≈ 3580 µM) | 7.24 ± 0.34 µM | 0.23 | 1 µg/mL (≈ 2.45 µM) | 2 µg/mL (≈ 4.91 µM) | 4 µg/mL (≈ 9.82 µM) | > 2.7 ×10⁻⁶ cm/s | 8.2 ×10⁻⁶ cm/s | 2.38 µM | 1 µg/mL | > 100 µM |  | 0.30 | 0.34 ± 0.05 µM | 2 µg/mL (≈ 4.91 µM) | 1.19 µM | 0.5 µg/mL | 2 µg/mL (≈ 4.91 µM)
